Source: patent publication US20240358692A1, “TREATMENT OF SCLERODERMA” (Aisa Pharma, Inc., priority 2023, published 2024)

Key:
[1] = cited from earlier work
participants with SSc-RP = assay: Average daily Raynaud's Condition Score (RCS); type: in vivo, human; design: key to Average Daily RCS, Mean / Average Daily RCS, Median / Average Daily RCS Change from Baseline, Mean / Average Daily RCS Change from Baseline, Median: RCS rated on a 0-10 cm VAS scale; conditions: ITT Population - Part A; for Average Daily RCS, Mean / Average Daily RCS, Median: dosing period
Text: The RCS is based on how much difficulty participants had with Raynaud's today, how many attacks the participant had, and how long they lasted. In addition participants were and will be asked to consider how much pain, numbness, or other symptoms the Raynaud's caused in fingers (including painful sores), and how much the Raynaud's along affected the use of hand today (VAS 0-10 cm scale).
The absolute change in average daily RCS from baseline to the end of each dosing period was and will be a secondary outcome variable. The sponsor-developed participant-informed diary has been and will be used to record data. The average daily RCS is defined as the total RCS divided by the number of days with available diary data of each dosing period. Total RCS during screening period divided by the number of days with available data will be used as baseline for the analysis of all periods. If there are multiple daily RCS scores, the latest daily RCS will be used. The variable will be calculated similar to frequency data as before.

[2] = Excluding Outliers, dose cilnidipine 10 mg, tadalafil 5 mg, alone or combined as labelled
[3] = Excluding Outliers, dose cilnidipine 20 mg, tadalafil 5 mg, alone or combined as labelled
[4] = Excluding Outliers, pooled arms Cilnidipine 10 mg and Cilnidipine 10 mg + Tadalafil 5 mg
[5] = Excluding Outliers, pooled arms Cilnidipine 20 mg and Cilnidipine 20 mg + Tadalafil 5 mg
[6] = Excluding Outliers, pooled cilnidipine 10 mg and 20 mg arms (combination: + tadalafil 5 mg)
[7] = dose cilnidipine 10 mg, tadalafil 5 mg, alone or combined as labelled
[8] = dose cilnidipine 20 mg, tadalafil 5 mg, alone or combined as labelled
[9] = pooled arms Cilnidipine 10 mg and Cilnidipine 10 mg + Tadalafil 5 mg
[10] = pooled arms Cilnidipine 20 mg and Cilnidipine 20 mg + Tadalafil 5 mg
[11] = pooled cilnidipine 10 mg and 20 mg arms (combination: + tadalafil 5 mg)

COCCOC(=O)C1=C(C)NC(C)=C(C(=O)OC/C=C/c2ccccc2)C1c1cccc([N+](=O)[O-])c1 (centres unmarked) [Cilnidipine]
CL/F ([1]; 10 mg Cilnidipine, Healthy Volunteers, single oral dose, mean): 304.7 L/h | time to achieve maximal plasma concentrations (Tmax) ([1]; oral dosing): ≤ 2 h | Average Daily RCS Change from Baseline, Mean (participants with SSc-RP; [2]): −0.98 | Average Daily RCS Change from Baseline, Median (participants with SSc-RP; [2]): −0.98 | Average Daily RCS Percent Change from Baseline, Mean (participants with SSc-RP; [2]): −35.74% | Average Daily RCS Percent Change from Baseline, Median (participants with SSc-RP; [2]): −35.74% | Average Daily RCS Change from Baseline, Mean (participants with SSc-RP; [3]): −0.45 | Average Daily RCS Change from Baseline, Median (participants with SSc-RP; [3]): −0.45 | Average Daily RCS Percent Change from Baseline, Mean (participants with SSc-RP; [3]): −17.16% | Average Daily RCS Percent Change from Baseline, Median (participants with SSc-RP; [3]): −17.16% | Average Daily RCS, Mean (participants with SSc-RP; [2]): 1.76 | Average Daily RCS, Median (participants with SSc-RP; [2]): 1.76 | Average Daily RCS, Mean (participants with SSc-RP; [3]): 2.90 | Average Daily RCS, Median (participants with SSc-RP; [3]): 2.90 | Average Daily RCS, Mean (participants with SSc-RP; [4]): 2.43 | Average Daily RCS, Median (participants with SSc-RP; [4]): 1.76 | Average Daily RCS, Mean (participants with SSc-RP; [5]): 3.60 | Average Daily RCS, Median (participants with SSc-RP; [5]): 3.82 | Average Daily RCS, Mean (participants with SSc-RP; [6]): 2.52 | Average Daily RCS, Median (participants with SSc-RP; [6]): 1.76 | Average Daily RCS Change from Baseline, Mean (participants with SSc-RP; [4]): −1.64 | Average Daily RCS Change from Baseline, Median (participants with SSc-RP; [4]): −1.51 | Average Daily RCS Percent Change from Baseline, Mean (participants with SSc-RP; [4]): −41.77% | Average Daily RCS Percent Change from Baseline, Median (participants with SSc-RP; [4]): −36.47% | Average Daily RCS Change from Baseline, Mean (participants with SSc-RP; [5]): −1.08 | Average Daily RCS Change from Baseline, Median (participants with SSc-RP; [5]): −0.59 | Average Daily RCS Percent Change from Baseline, Mean (participants with SSc-RP; [5]): −18.93% | Average Daily RCS Percent Change from Baseline, Median (participants with SSc-RP; [5]): −20.71% | Average Daily RCS Change from Baseline, Mean (participants with SSc-RP; [6]): −0.63 | Average Daily RCS Change from Baseline, Median (participants with SSc-RP; [6]): −0.98 | Average Daily RCS Percent Change from Baseline, Mean (participants with SSc-RP; [6]): −23.35% | Average Daily RCS Percent Change from Baseline, Median (participants with SSc-RP; [6]): −35.74% | Average Daily RCS Change from Baseline, Mean (participants with SSc-RP; [7]): −0.98 | Average Daily RCS Change from Baseline, Median (participants with SSc-RP; [7]): −0.98 | Average Daily RCS Percent Change from Baseline, Mean (participants with SSc-RP; [7]): −35.74% | Average Daily RCS Percent Change from Baseline, Median (participants with SSc-RP; [7]): −35.74% | Average Daily RCS Change from Baseline, Mean (participants with SSc-RP; [8]): −0.45 | Average Daily RCS Change from Baseline, Median (participants with SSc-RP; [8]): −0.45 | Average Daily RCS Percent Change from Baseline, Mean (participants with SSc-RP; [8]): −17.16% | Average Daily RCS Percent Change from Baseline, Median (participants with SSc-RP; [8]): −17.16% | Average Daily RCS, Mean (participants with SSc-RP; [7]): 1.76 | Average Daily RCS, Median (participants with SSc-RP; [7]): 1.76 | Average Daily RCS, Mean (participants with SSc-RP; [8]): 2.90 | Average Daily RCS, Median (participants with SSc-RP; [8]): 2.90 | Average Daily RCS, Mean (participants with SSc-RP; [9]): 2.43 | Average Daily RCS, Median (participants with SSc-RP; [9]): 1.76 | Average Daily RCS, Mean (participants with SSc-RP; [10]): 3.60 | Average Daily RCS, Median (participants with SSc-RP; [10]): 3.82 | Average Daily RCS, Mean (participants with SSc-RP; [11]): 2.52 | Average Daily RCS, Median (participants with SSc-RP; [11]): 1.76 | Average Daily RCS Change from Baseline, Mean (participants with SSc-RP; [9]): −1.64 | Average Daily RCS Change from Baseline, Median (participants with SSc-RP; [9]): −1.51 | Average Daily RCS Percent Change from Baseline, Mean (participants with SSc-RP; [9]): −41.77% | Average Daily RCS Percent Change from Baseline, Median (participants with SSc-RP; [9]): −36.47% | Average Daily RCS Change from Baseline, Mean (participants with SSc-RP; [10]): −1.08 | Average Daily RCS Change from Baseline, Median (participants with SSc-RP; [10]): −0.59 | Average Daily RCS Percent Change from Baseline, Mean (participants with SSc-RP; [10]): −18.93% | Average Daily RCS Percent Change from Baseline, Median (participants with SSc-RP; [10]): −20.71% | Average Daily RCS Change from Baseline, Mean (participants with SSc-RP; [11]): −0.63 | Average Daily RCS Change from Baseline, Median (participants with SSc-RP; [11]): −0.98 | Average Daily RCS Percent Change from Baseline, Mean (participants with SSc-RP; [11]): −23.35% | Average Daily RCS Percent Change from Baseline, Median (participants with SSc-RP; [11]): −35.74%
